The values below come from US9481676B2, “Azepino[4,5-B]indoles and methods of use” (Medivation Technologies, Inc., priority 2008, dated 2016).

Molecules are shown by their SMILES.

Experiment [1] has as its target T1, human recombinant histamine H1 receptor (Homo sapiens, UniProt P35367).
T1 construct: expressed in transfected cells; host or cells: CHO cells
The experiment can be described thus: Histamine H1 radioligand binding ([3H]Pyrilamine). As to conditions: compound at 1 μM; read-out: Histamine Binding (1 μM) H1, percent inhibition of specific binding. Put shortly:
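Membranes from CHO cells expressing the receptor were incubated with compound and 1.2 nM [3H]pyrilamine for 180 min at 25 °C in 50 mM Tris-HCl pH 7.4 with MgCl2, NaCl and sucrose; 1 μM pyrilamine defined non-specific binding. Filter-bound radioactivity was counted.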

Experiment [2] concerns the target T2, human recombinant histamine H2 receptor (Homo sapiens, UniProt P25021).
T2 construct: expressed in transfected cells; host or cells: CHO-K1 cells
As to the kind of experiment: Histamine H2 radioligand binding ([125I]Aminopotentidine). As to conditions: compound at 1 μM; read-out: Histamine Binding (1 μM) H2, percent inhibition of specific binding. Put shortly: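 Membranes from CHO-K1 cells expressing recombinant human H2 receptor, in 50 mM phosphate buffer pH 7.4, incubated with 0.1 nM [125I]aminopotentidine for 120 min at 25 °C; nonspecific binding defined with 3 μM tiotidine.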

Experiment [3] concerns the target T3, human recombinant adrenergic α1D receptor (Homo sapiens, UniProt P25100).
T3 construct: expressed in transfected cells; host or cells: HEK-293 cells
T3 sequence (P25100 1-572): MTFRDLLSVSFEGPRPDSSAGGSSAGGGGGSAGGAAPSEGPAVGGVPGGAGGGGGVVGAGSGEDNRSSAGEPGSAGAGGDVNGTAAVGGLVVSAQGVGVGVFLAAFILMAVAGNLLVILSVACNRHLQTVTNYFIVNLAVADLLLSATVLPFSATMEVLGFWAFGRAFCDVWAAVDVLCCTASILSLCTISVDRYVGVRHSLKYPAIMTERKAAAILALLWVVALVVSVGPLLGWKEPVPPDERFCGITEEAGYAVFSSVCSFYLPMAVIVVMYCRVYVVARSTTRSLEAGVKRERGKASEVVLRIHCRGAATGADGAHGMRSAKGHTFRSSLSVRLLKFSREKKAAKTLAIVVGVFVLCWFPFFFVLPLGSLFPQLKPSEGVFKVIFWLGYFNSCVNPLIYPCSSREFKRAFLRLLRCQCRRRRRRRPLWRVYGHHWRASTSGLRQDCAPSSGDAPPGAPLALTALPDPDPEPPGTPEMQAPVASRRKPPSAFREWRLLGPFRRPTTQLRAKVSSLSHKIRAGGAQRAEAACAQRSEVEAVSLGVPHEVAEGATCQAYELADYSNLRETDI
As to the kind of experiment: Adrenergic alpha1D radioligand binding ([3H]Prozosin). The settings on record: compound at 1 μM; read-out: Adrenergic (1 μM) α1D, percent inhibition of specific binding. Put shortly:
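Membranes from HEK-293 cells expressing the human receptor in 50 mM Tris-HCl pH 7.4 were incubated 60 min at 25 °C with 0.6 nM [3H]prazosin. Nonspecific binding was defined with 10 μM phentolamine, and bound ligand measured by filtration.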

In experiment [4] the target is T4, human recombinant adrenergic α2A receptor (Homo sapiens, UniProt P08913).
T4 construct: expressed in transfected cells; host or cells: insect Sf9 cells
T4 sequence (P08913 1-465): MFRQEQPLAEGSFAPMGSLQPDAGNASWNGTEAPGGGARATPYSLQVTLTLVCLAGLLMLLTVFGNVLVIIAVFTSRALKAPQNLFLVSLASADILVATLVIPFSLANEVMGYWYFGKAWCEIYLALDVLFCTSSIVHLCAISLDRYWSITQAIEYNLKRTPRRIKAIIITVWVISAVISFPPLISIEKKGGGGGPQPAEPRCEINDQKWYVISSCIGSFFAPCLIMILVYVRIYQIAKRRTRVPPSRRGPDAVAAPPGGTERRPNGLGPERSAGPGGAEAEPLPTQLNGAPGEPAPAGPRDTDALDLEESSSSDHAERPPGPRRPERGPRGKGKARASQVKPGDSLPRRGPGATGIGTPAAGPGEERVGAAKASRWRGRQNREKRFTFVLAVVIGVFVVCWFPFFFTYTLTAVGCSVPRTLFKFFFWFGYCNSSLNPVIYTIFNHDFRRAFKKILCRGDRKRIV
The experiment can be described thus: Adrenergic alpha2A radioligand binding ([3H]MK-912). As to conditions: compound at 1 μM; read-out: Adrenergic (1 μM) α2A, percent inhibition of specific binding. Put shortly:
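Membranes of Sf9 cells expressing human recombinant α2A receptor were incubated with compound and 1 nM [3H]MK-912 for 60 min at 25 °C in 50 mM Tris-HCl pH 7.4, 12.5 mM MgCl2, 2 mM EDTA. Nonspecific binding: 10 μM WB-4101.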

T2 sequence (P25021 whole entry): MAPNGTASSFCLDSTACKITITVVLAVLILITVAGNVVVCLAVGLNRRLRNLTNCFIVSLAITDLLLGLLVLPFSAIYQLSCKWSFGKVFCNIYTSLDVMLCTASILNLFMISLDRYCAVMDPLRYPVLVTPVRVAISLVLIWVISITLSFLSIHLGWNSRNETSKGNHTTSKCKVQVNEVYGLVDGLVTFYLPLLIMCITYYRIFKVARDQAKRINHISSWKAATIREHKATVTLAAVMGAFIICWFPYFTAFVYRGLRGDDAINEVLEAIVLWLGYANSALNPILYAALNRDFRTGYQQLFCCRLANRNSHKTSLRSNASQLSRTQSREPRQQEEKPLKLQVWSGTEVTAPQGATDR
T1 sequence (P35367 whole entry): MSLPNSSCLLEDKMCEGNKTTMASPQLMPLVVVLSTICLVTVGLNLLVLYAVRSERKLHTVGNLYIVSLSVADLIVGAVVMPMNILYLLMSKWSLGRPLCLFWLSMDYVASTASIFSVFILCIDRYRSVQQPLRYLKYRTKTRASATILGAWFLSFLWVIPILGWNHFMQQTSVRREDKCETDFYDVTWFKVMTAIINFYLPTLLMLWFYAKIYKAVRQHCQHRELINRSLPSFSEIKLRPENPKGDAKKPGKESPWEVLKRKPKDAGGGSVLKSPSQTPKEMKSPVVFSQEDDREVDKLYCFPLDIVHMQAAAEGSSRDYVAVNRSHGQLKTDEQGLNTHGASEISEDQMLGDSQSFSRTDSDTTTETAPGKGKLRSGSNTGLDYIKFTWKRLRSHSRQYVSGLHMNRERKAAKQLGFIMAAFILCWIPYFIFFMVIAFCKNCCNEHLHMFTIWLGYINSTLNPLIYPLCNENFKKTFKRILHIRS

Take `CN1CCc2c(n(CCc3ccc(C(F)(F)F)nc3)c3ccc(Cl)cc23)CC1` [Compound No. 1, 9-chloro-6-(2-(6-(trifluoromethyl)pyridin-3-yl)ethyl)-1,2,3,4,5,6-hexahydro-3-methylazepino[4,5-b]indole]: the inhibition at 1 µM was 96% in experiment [1], 58% in experiment [2], 90% in experiment [3] and 90% in experiment [4].

Regarding `C/C(=C/n1c2c(c3cc(Cl)ccc31)CCN(C)CC2)c1ccc(Cl)cc1Cl` [Compound No. 152, (Z)-9-chloro-6-(2-(2,4-dichlorophenyl)prop-1-enyl)-1,2,3,4,5,6-hexahydro-3-methylazepino[4,5-b]indole], the inhibition at 1 µM was found to be 91% in experiment [1], 86% in experiment [2], 47% in experiment [3] and 93% in experiment [4].

As to `COc1ccc(C(O)Cn2c3c(c4cc(C)ccc42)CCN(C)CC3)cc1OC` (centres unmarked) [Compound No. 227, 1-(3,4-dimethoxyphenyl)-2-(3,9-dimethyl-2,3,4,5-tetrahydroazepino[4,5-b]indol-6(1H)-yl)ethanol], the inhibition at 1 µM in experiment [1] worked out at 95%; in experiment [2] it was 19%; in experiment [3], 73%; in experiment [4], 70%.

`Cc1ccc2c(c1)c1c(n2CC(=O)N2CCC(C)CC2)CCN(C)CC1` [Compound No. 225, 2-(3,9-dimethyl-2,3,4,5-tetrahydroazepino[4,5-b]indol-6(1H)-yl)-1-(4-methylpiperidin-1-yl)ethanone]: the inhibition at 1 µM is 95% in experiment [1], 6% in experiment [2], 34% in experiment [3] and 0% in experiment [4].

For the compound `CN1CCc2c(n(/C=C/c3ccccc3F)c3ccc(Cl)cc23)CC1` [Compound No. 83, (E)-9-chloro-6-(2-fluorostyryl)-3-methyl-1,2,3,4,5,6-hexahydro azepino[4,5-b]indole], the inhibition at 1 µM was 97% in experiment [1], 98% in experiment [2], 93% in experiment [3] and 99% in experiment [4].

`CC1CCN(C(=O)Cn2c3c(c4cc(Cl)ccc42)CCN(C)CC3)CC1` [Compound No. 76, 2-(9-chloro-2,3,4,5-tetrahydro-3-methylazepino[4,5-b]indol-6(1H)-yl)-1-(4-methylpiperidin-1-yl)ethanone]: the inhibition at 1 µM in experiment [1] is 95%; in experiment [2] it was 19%; in experiment [3], 37%; in experiment [4] it was 7%.

For the compound `Cc1ccc2c(c1)c1c(n2CC(=O)Nc2ccccc2)CCN(C)CC1` [Compound No. 79, 2-(2,3,4,5-tetrahydro-3,9-dimethylazepino[4,5-b]indol-6(1H)-yl)-N-phenylacetamide], the inhibition at 1 µM in experiment [1] is 6%; in experiment [2], 0%; in experiment [3] it was -6%; in experiment [4] it was 17%.

On to `C=C(Cn1c2c(c3cc(Cl)ccc31)CCN(C)CC2)c1ccc(F)cc1` [Compound No. 82, 9-chloro-6-(2-(4-fluorophenyl)allyl)-3-methyl-1,2,3,4,5,6-hexahydroazepino[4,5-b]indole], for which the inhibition at 1 µM in experiment [1] was 103%; in experiment [2] it was 95%; in experiment [3] it was 96%; in experiment [4], 96%.

In the case of `Cc1cncc(CCn2c3c(c4cc(Cl)ccc42)CCN(C)CC3)c1` [Compound No. 3, 9-chloro-3-methyl-6-(2-(5-methylpyridin-3-yl)ethyl)-1,2,3,4,5,6-hexahydroazepino[4,5-b]indole], the inhibition at 1 µM came out at 102% in experiment [1], 82% in experiment [2], 89% in experiment [3] and 91% in experiment [4].

On to `COc1ccc(/C=C/n2c3c(c4cc(Cl)ccc42)CCN(C)CC3)cc1` [Compound No. 78, 6-(4-methoxystyryl)-9-chloro-1,2,3,4,5,6-hexahydro-3-methylazepino[4,5-b]indole], for which the inhibition at 1 µM stood at 100% in experiment [1], 91% in experiment [2], 102% in experiment [3] and 83% in experiment [4].

With `COc1ccc(C(O)Cn2c3c(c4cc(Cl)ccc42)CCN(C)CC3)cc1OC` (centres unmarked) [Compound No. 77, 2-(9-chloro-2,3,4,5-tetrahydro-3-methylazepino[4,5-b]indol-6(1H)-yl)-1-(3,4-dimethoxyphenyl)ethanol], the inhibition at 1 µM came to 97% in experiment [1], 37% in experiment [2], 81% in experiment [3] and 85% in experiment [4].

Take `CN1CCc2c(n(/C=C/c3ccccc3)c3ccc(Cl)cc23)CC1` [Compound No. 228, (E)-9-chloro-3-methyl-6-styryl-1,2,3,4,5,6-hexahydroazepino[4,5-b]indole]: the inhibition at 1 µM in experiment [1] came out at 99%; in experiment [2], 97%; in experiment [3], 98%; in experiment [4], 102%.

With `C/C(=C\n1c2c(c3cc(Cl)ccc31)CCN(C)CC2)c1ccc(F)cc1` [Compound No. 2, 9-chloro-6-((E)-2-(4-fluorophenyl)prop-1-enyl)-1,2,3,4,5,6-hexahydro-3-methylazepino[4,5-b]indole], the inhibition at 1 µM in experiment [1] turned out to be 93%; in experiment [2] it was 105%; in experiment [3] it was 100%; in experiment [4] it was 96%.

With `Cc1ccc2c(c1)c1c(n2CC(=O)N2CCNCC2)CCN(C)CC1` [Compound No. 224, 2-(3,9-dimethyl-2,3,4,5-tetrahydroazepino[4,5-b]indol-6(1H)-yl)-1-(piperazin-1-yl)ethanone], the inhibition at 1 µM in experiment [1] is 33%; in experiment [2], -4%; in experiment [3], 19%; in experiment [4] it was 8%.

On to `C/C(=C/n1c2c(c3cc(C)ccc31)CCN(C)CC2)c1ccc(Cl)cc1Cl` [Compound No. 174, (Z)-6-(2-(2,4-dichlorophenyl)prop-1-enyl)-1,2,3,4,5,6-hexahydro-3,9-dimethylazepino[4,5-b]indole], for which the inhibition at 1 µM in experiment [1] came out at 98%; in experiment [2], 99%; in experiment [3] it was 89%; in experiment [4], 101%.

`COc1ccc(/C=C/n2c3c(c4cc(C)ccc42)CCN(C)CC3)cc1F` [Compound No. 180, (E)-6-(3-fluoro-4-methoxystyryl)-1,2,3,4,5,6-hexahydro-3,9-dimethylazepino[4,5-b]indole]: the inhibition at 1 µM in experiment [1] is 97%; in experiment [2] it was 77%; in experiment [3] it was 98%; in experiment [4] it was 99%.

As to `COc1ccc(/C=C/n2c3c(c4cc(Cl)ccc42)CCN(C)CC3)cc1OC` [Compound No. 226, (E)-9-chloro-6-(3,4-dimethoxystyryl)-3-methyl-1,2,3,4,5,6-hexahydroazepino[4,5-b]indole], the inhibition at 1 µM in experiment [1] worked out at 99%; in experiment [2] it was 39%; in experiment [3], 83%; in experiment [4] it was 93%.
